No end group written: not given here. long linker = not defined here
What was measured:
Gal1 = test: SNAP-tag mediated pull-down from HEK lysates, Gal1; format: binding, human cell line HEK293-EBNA; conditions: lysates of Gal1-transfected HEK cells
Protocol: (§1) For the pull-down of interactors of L5UR-SNAP and control constructs, HEK293 EBNA cells were plated on 10 cm dishes. For each dish, 5 µg of pDest305-CMV-hGal1 and pEF-L5UR-SNAP, pEF-mutL5UR-SNAP, or pEF-SNAP were transfected. Transfection was done at ≥70% confluency using 2 µL jetPRIME per 1 µg DNA transfected, according to the manufacturer’s instructions. After about 24 h, the growth medium was removed, cells were rinsed twice in cold PBS, and each dish was lysed in 1 mL lysis buffer, consisting of 20 mM HEPES pH 7.5, 4 mM β-mercaptoethanol, 0.05% Igepal, 1× Protease Inhibitor (Thermo Scientific, #A32955) and 1× PhosSTOP (Roche, #04 906 837 001). The cells were scraped and transferred to Eppendorf tubes, then incubated on ice for 30 min, with occasional mixing by inverting the tube. The lysate was cleared by centrifugation for 15 min at 4 °C and 16,363 rcf. Cleared lysate was transferred to a clean tube, 15 µL sample was withdrawn as “Input” for Western blot analysis, and 25 µL of SNAP-capture magnetic beads (New England Biolabs, #S9145S) suspension (diluted 1:1 in lysis buffer) was added. The samples were further incubated for 2 h at room temperature (20–25 °C) on a rotating wheel. […] The samples were resolved on 4–20% SDS-PAGE gels in Tris-Gly buffer and analyzed by Western blotting. […]

C-Raf = test: SNAP-tag mediated pull-down from HEK lysates, C-Raf; format: binding, human cell line HEK293-EBNA; conditions: lysates of Gal1-transfected HEK cells; n = 4
Protocol: as §1

Gal1/B-RBD = Gal1/B-RBD (Homo sapiens, UniProt P15056); test: Gal1/B-RBD BRET in HEK cells; format: cell-based; conditions: expression (48 h), donor:acceptor 1:10; HEK; n = 3
H-RasG12V nanoclustering [1] = test: H-RasG12V nanoclustering-BRET in HEK cells; format: cell-based, human; conditions: expression (48 h), donor:acceptor 1:5, n = 3
[2] = tested on: catalytic subunit of PI3Kα; test: SNAP-tag mediated pull-down from HEK lysates, PI3Kα catalytic subunit; format: binding, human cell line HEK293-EBNA; conditions: lysates of Gal1-transfected HEK cells; n = 4
Protocol: as §1

RASSF7 = test: SNAP-tag mediated pull-down from HEK lysates, RASSF7; format: binding, human cell line HEK293-EBNA; conditions: lysates of Gal1-transfected HEK cells; n = 4
Protocol: as §1

ASPP2 = test: SNAP-tag mediated pull-down from HEK lysates, ASPP2; format: binding, human cell line HEK293-EBNA; conditions: lysates of Gal1-transfected HEK cells; n = 4
Protocol: as §1

B-Raf = test: SNAP-tag mediated pull-down from HEK lysates, B-Raf; format: binding, human cell line HEK293-EBNA; conditions: lysates of Gal1-transfected HEK cells; n = 4
Protocol: as §1

H-RasG12V nanoclustering [3] = test: Electron microscopy-based analysis of H-RasG12V nanoclustering in BHK cells; format: cell-based, baby hamster kidney (BHK) cells; conditions: membrane sheets of Gal1-expressing BHK cells; n = 15
Source text: To quantify the nanoclustering of a component integral to the plasma membrane (PM), the apical PM sheets of baby hamster kidney (BHK) cells expressing a GFP-tagged H-Ras construct were fixed with 4% (w/v) PFA and 0.1% (w/v) glutaraldehyde. GFP anchored to the PM sheets was probed with 4.5 nm gold particles pre-coupled to anti-GFP antibody. Following embedment with methyl cellulose, the PM sheets were imaged using transmission electron microscopy (JEOL JEM-1400). Using the coordinates of every gold particle, Ripley’s K-function calculated the extent of nanoclustering of gold particles within a selected 1 μm^2 PM area: K(r)=An^−2∑i≠jwij1(∥xi−xj∥≤r) Lr−r=Kr/π−r where n gold particles populate in an intact area of A; r is the length between 1 and 240 nm; || ^. || indicates Euclidean distance where 1(^.) = 1 if ||xi − xj|| ≤ r and 1(^.) = 0 if ||xi − xj|| > r; K(r) specifies the univariate K-function. wij^−1 is a parameter used for an unbiased edge correction and characterizes the proportion of the circumference of a circle that has the center at xi and radius ||xi-xj||. Monte Carlo simulations estimate the 99% confidence interval (99% C.I.), which is then used to linearly transform K(r) into L(r) − r. On a nanoclustering curve of L(r) − r vs. r, the peak L(r) − r value is used as summary statistics for nanoclustering and is termed as Lmax. […]

Chain of Gal1/B-RBD (P15056 155-227): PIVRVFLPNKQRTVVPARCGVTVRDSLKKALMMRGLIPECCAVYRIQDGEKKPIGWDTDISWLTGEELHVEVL

## L5UR-SNAP: genetic construct with SNAP-tag added via a long linker to the C-terminus of L5UR (LLRPTAASQSRALGPGAPGGSSRSSLRSRWGRFLLQRGSWTGPRCWPRGFQS-{long linker-SNAP‑tag}; reading uncertain)
Gal1
  pull-down of Gal1: does under those conditions not interact with Gal1
C-Raf
  pull-down of C-Raf: pulled down
Gal1/B-RBD
  effect of construct expression on Gal1/B-RBD BRET: dose-dependently decreased BRET between Gal1 and the B-RBD
H-RasG12V nanoclustering [1]; co-transfection of 200 ng Gal1 plasmid, Fig. 3c
  reduction of H-RasG12V nanoclustering-BRET: ~ 33%
H-RasG12V nanoclustering [1]; with co-transfection of 200 ng Gal1 plasmid
  effect of construct expression on H-RasG12V nanoclustering-BRET: decreased Gal1-enhanced H-RasG12V nanoclustering-BRET to a similar extent as the untagged L5UR
[2]
  pull-down of catalytic subunit of PI3Kα: pulled down
RASSF7
  pull-down of RASSF7: as were its two RA-domain containing interaction partners, RASSF7 and RASSF9
ASPP2
  pull-down of ASPP2: it was pulled down by L5UR-SNAP
B-Raf
  pull-down of B-Raf: pulled down
H-RasG12V nanoclustering [3]
  disruption of H-RasG12V nanoclustering (Lmax): The disruption of H-RasG12V nanoclustering specifically by L5UR-SNAP

Source: PMC11233548 (Communications Biology, 2024)
